According to US20060058380A1, “Novel aminobenzophenone compounds” (priority 2002, published 2006):

How the values were obtained:
[1] = tested on: IL-1β; assay: Inhibition of IL-1β secretion in LPS stimulated peripheral blood mononuclear cells; type: cell-based; details: PBMC; LPS stimulated human peripheral blood mononuclear cells, 18 hours, ELISA; read-out: The median inhibition concentration (IC50, nM) IL-1β
Protocol: (§1) To study the effect of the compound of the present invention in vitro the inhibition of the IL-1β and TNF-α secretion was measured using the following procedure:
(§2) Cytokine production was measured in the media from lipopolysaccharide (LPS) stimulated peripheral blood mononuclear cells. The mononuclear cells were isolated from human peripheral blood by Lymphoprep® (Nycomed, Norway) fractionation and suspended in RPMI 1640 (growth medium) with foetal calf serum (FCS, 2%), at a concentration of 5×10^5 cells/ml. The cells were incubated in 24-well tissue culture plates in 1 ml aliquots. Test compounds were dissolved in dimethylsulfoxide (DMSO, 10 mM) and were diluted with the medium. Compounds were added to the cells for 30 minutes, then LPS ([…] final concentration) was added. The plates were incubated for 18 hours, and the concentration of IL-1β and TNF-α in the medium was determined by enzyme-linked immunosorbent assays. The median inhibitory concentrations (IC50) of the compounds were calculated.

[2] = Discolouring of compounds on filter paper before and after sun-test illumination; type: physicochemical; design: key: 0: No colour; 1: Very faint colour; 2: Light colour; 3: Medium colour; 4: Strong colour; details: for Colour score prior to illumination: 10 mM in Ethanol:Labrasol:water 65:25:10, 10 ul spot on filter paper dried 15 minutes; for Colour score after illumination: spots illuminated in sun-test cabinet (Heraeus Suntest CPS), outdoor illumination, 5 minutes
Protocol: The discolouring of compounds of formula I was investigated in a comparison with known aminobenzophenones.
Compounds were dissolved in DMSO at 100 mM. The solutions were diluted 1:10 in the test vehicle (Ethanol:Labrasol:water 65:25:10) just prior to the experiment. 10 ul aliquots were placed in droplets on filter paper and allowed to dry for 15 minutes into spots. Then the colour of the spots was scored using the following scale:
The spots were illuminated in a sun-test cabinet (Heraeus Suntest CPS) set for outdoor illumination for 5 minutes. The scoring was repeated after illumination.

[3] = tested on: TNF-α; assay: Inhibition of TNF-α secretion in LPS stimulated peripheral blood mononuclear cells; type: cell-based; details: PBMC; LPS stimulated human peripheral blood mononuclear cells, 18 hours, ELISA; read-out: The median inhibition concentration (IC50, nM) TNF-α
Protocol: as §1, §2

[4] = tested on: comedones; assay: Rhino mouse model, reduction of number of comedones; type: in vivo; details: topical on the back daily for 21 days, 45 mM in acetone, percentage change compared to untreated control group
Protocol: The rhino mouse is an in vivo model for the study of hyperplastic and comedolytic potency of compounds used in the treatment of acne. The rhino mouse has follicles on the skin, the orifices of which are distended with horny material, and these structures resembles human comedones.
The model uses mouse of the strain RHJ/LeJ Rhino, hr^rh/hr^rh. The mice are treated topically on the back daily for 21 days with the test compound. Compounds are tested for their ability to reduce the number of comedones.
The number of comedones in the skin of the mouse is determined by histological examination. The percentage change in the number of comedones compared to an untreated control group is calculated. The compounds were applied at 45 mM dissolved in acetone.

Structure (SMILES) | IC50 [1] [nM] | Colour score prior to illumination [2] | Colour score after illumination [2] | IC50 [3] [nM] | Reduction in number of comedones [4] [%]
Cc1cc(F)ccc1Nc1ccc(C(=O)c2ccccc2C)c(Cl)c1 [Reference a, 2-chloro-4-(4-fluoro-2-methyl-phenylamino)-2′-methylbenzophenone, reference compound] | 32 | 0 | 3 | 7.9 | –
Cc1ccccc1C(=O)c1ccc(N(C(=O)OC(C)OC(=O)C(C)(C)O)c2ccc(F)cc2C)cc1Cl (stereo not shown) [Compound 128, 2-Hydroxy-2-methyl-propionic acid 1-[[3-chloro-4-(2-methyl-benzoyl)-phenyl]-(4-fluoro-2-methyl-phenyl)-carbamoyloxy]-ethyl ester] | 10 | – | – | 7.9 | –
CNc1ccccc1C(=O)c1ccc(Nc2ccccc2N)cc1Cl [Reference c, 4-(2-aminophenylamino)-2-chloro-2′-methylaminobenzophenon, reference compound] | – | 1 | 3 | – | –
CCCC(=O)OCOC(=O)N(c1ccc(C(=O)c2ccccc2C)c(Cl)c1)c1ccc(F)cc1C [Compound 113, Butyric acid [[3-chloro-4-(2-methyl-benzoyl)-phenyl]-(4-fluoro-2-methyl-phenyl)-carbamoyloxy]-methyl ester] | 50 | 0 | 0 | 10 | −72
Cc1ccccc1C(=O)c1ccc(Nc2ccc(Br)cc2N)cc1Cl [Reference b, 4-(2-amino-4-bromo-phenylamino)-2-chloro-2′-methylbenzophenone, reference compound] | – | 1 | 3 | – | –
Cc1ccccc1C(=O)c1ccc(N(C(=O)OC(C)OC(=O)c2cccnc2)c2ccc(F)cc2C)cc1Cl (stereo not shown) [Compound 147, Nicotinic acid 1-[[3-chloro-4-(2-methyl-benzoyl)-phenyl]-(4-fluoro-2-methyl-phenyl)-carbamoyloxy]-ethyl ester] | – | 0 | 0 | – | –

The next lines start with results.

IC50 [1] [nM] | Colour score prior to illumination [2] | Colour score after illumination [2] | IC50 [3] [nM] | Structure (SMILES) | Reduction in number of comedones [4] [%]
7.9 | – | – | 5 | C/C=C/C(=O)OC(C)OC(=O)N(c1ccc(C(=O)c2ccccc2C)c(Cl)c1)c1ccc(F)cc1C (stereo not shown) [Compound 137, (E)-But-2-enoic acid 1-[[3-chloro-4-(2-methyl-benzoyl)-phenyl]-(4-fluoro-2-methyl-phenyl)-carbamoyloxy]-ethyl ester] | –
– | 0 | 0 | – | COCC(=O)OC(C)OC(=O)N(c1ccc(C(=O)c2ccccc2C)c(Cl)c1)c1ccc(F)cc1C (stereo not shown) [Compound 119, Methoxy-acetic acid 1-[[3-chloro-4-(2-methyl-benzoyl)-phenyl]-(4-fluoro-2-methyl-phenyl)-carbamoyloxy]-ethyl ester] | –
79 | 0 | 0 | 20 | Cc1ccccc1C(=O)c1ccc(N(C(=O)OC(C)OC(=O)CC(C)C)c2ccc(F)cc2C)cc1Cl (stereo not shown) [Compound 133, 3-Methyl-butyric acid 1-[[3-chloro-4-(2-methyl-benzoyl)-phenyl]-(4-fluoro-2-methyl-phenyl)-carbamoyloxy]-ethyl ester] | −61
25 | 0 | 0 | 12 | CCCC(=O)OC(C)OC(=O)N(c1ccc(C(=O)c2ccccc2C)c(Cl)c1)c1ccc(F)cc1C (stereo not shown) [Compound 112, Butyric acid 1-[[3-chloro-4-(2-methyl-benzoyl)-phenyl]-(4-fluoro-2-methyl-phenyl)-carbamoyloxy]-ethyl ester] | −56
